The results in this text go back to ChEMBL document CHEMBL1124742 (J Med Chem, 1990).

The species named for one data set is Cricetulus griseus. The data set can be described thus: Hypersensitivity factor(HF) was determined from the ratio of IC50(AA8) / IC50(UV4). It is filed as functional.
In data set [1] the test system is P388. The data set can be described thus: Optimal dose of drug administered as a single dose in 0.1 or 0.2 mL of 30% v/v ethanol/water on day one after ip inoculation of 10e6 P388 leukemia cells. The format is functional, Mus musculus.
The test system of data set [2] is UV4. The data set can be described thus: In vitro cytotoxicity against transformed chinese hamster fibroblast line UV4. Particulars: Cricetulus griseus. It is filed as functional, cell-based.
Data set [3] is described as follows: Evaluated for the mustard reactivity by determining rate constant for hydrolysis of mustard in aqueous acetone (K H). The format is ADME. The conditions noted are these: buffer.
In data set [4] the test system is P388. Description: In vitro cytotoxicity against P388 murine leukemia. It is filed as functional, cell-based. The conditions noted are these: Mus musculus.
The subject of data set [5] is CHO-AA8. Description: In vitro cytotoxicity against transformed chinese hamster fibroblast line AA8. The format is functional, cell-based. The conditions noted are these: Cricetulus griseus.
Data set [6] can be described thus: Evaluated for the mustard reactivity by determining rate constant for alkylation of 4-(4-nitrobenzyl)pyridine using NBP alkylation assay. It is filed as ADME.
Data set [7] has as its system P388. Description: In vivo percentage increase in lifespan of drug treated tumor-bearing mice at a dose of 45 mg/kg. Particulars: Mus musculus. The format is functional.
In data set [8] the test system is UV4. The data set can be described thus: Tested for the in vitro cytotoxicity against transformed chinese hamster fibroblast line UV4. It is filed as functional, cell-based. Particulars: Cricetulus griseus.
Data set [9] concerns CHO-AA8. The data set can be described thus: (§1) Tested for the in vitro cytotoxicity against transformed chinese hamster fibroblast line AA8. The format is functional, cell-based. The conditions noted are these: Cricetulus griseus.
Data set [10] relates to P388. The data set can be described thus: In vivo percentage increase in lifespan of drug treated tumor-bearing mice at a dose of 13.3 mg/kg. The format is functional. Particulars: Mus musculus.
Data set [11] deals with CHO-AA8. The description is as §1. The format is cell-based. The conditions noted are these: Cricetulus griseus.
For data set [12], the system named is P388. The data set can be described thus: In vivo percentage increase in lifespan of drug treated tumor-bearing mice at a dose of 225 mg/kg. The format is functional. The conditions noted are these: Mus musculus.
Data set [13] relates to P388. Description: Tested for the in vitro cytotoxicity against P388 murine leukemia. The format is cell-based. The conditions noted are these: Mus musculus.
In data set [14] the test system is P388. The data set can be described thus: In vivo percentage increase in lifespan of drug treated tumor-bearing mice at a dose of 20 mg/kg. The format is functional. Particulars: Mus musculus.

The IC50 is the point on the concentration scale where inhibition reaches its midpoint. One may read the ILS as the gain in survival time of treated over control animals, in per cent. Low readings indicate a small benefit in survival, high ones a large benefit in survival. Consider `ClCCN(CCCl)c1ccc(SCCCCCNc2c3ccccc3nc3ccccc23)cc1`, for which, in the data set filed under Cricetulus griseus, the Ratio amounted to 19. Besides, the OD with P388 [1] worked out at 45 mg/kg. For the same compound, the values for the IC50 with UV4 [2], in the data set with P388 [4] and with CHO-AA8 [5] were 37 nM, 360 nM and 710 nM, respectively. Moreover, the “K H” value in data set [3] is 5900 s⁻¹. Further, the “K NBP” value in data set [6] amounted to 16900 s⁻¹. In the data set on P388 [7], the ILS at 45 mg/kg was 23%.
As to `O=S(=O)(CCCCCNc1c2ccccc2nc2ccccc12)c1ccc(N(CCCl)CCCl)cc1`, the Ratio in the data set filed under Cricetulus griseus came to 1. The OD in the data set with P388 [1] stood at 45 mg/kg. For the same compound, the values for the IC50 in the data set on UV4 [8], with CHO-AA8 [9] and with P388 [4] were 570 nM, 570 nM and 640 nM, respectively. For the same compound, the “K H” value in [3] amounted to 2800 s⁻¹. Further, the “K NBP” value in [6] came out at 500 s⁻¹. For the same compound, in the data set with P388 [7], the ILS at 45 mg/kg worked out at 33%.
In the case of `ClCCN(CCCl)c1ccc(CCCCCCNc2c3ccccc3nc3ccccc23)cc1`, the Ratio in the data set filed under Cricetulus griseus turned out to be 36. The OD in the data set on P388 [1] stood at 13.3 mg/kg. Moreover, the IC50 was found to be 15 nM in the data set on UV4 [2], 130 nM in the data set with P388 [4] and 530 nM in the data set with CHO-AA8 [5]. Also, in data set [3], the “K H” value came to 33900 s⁻¹. For the same compound, the ILS at 13.3 mg/kg with P388 [10] is 22%. Besides, the “K NBP” value in data set [6] turned out to be 157000 s⁻¹.
As for `O=C(O)CCCc1ccc(N(CCCl)CCCl)cc1` [CHLORAMBUCIL], the Ratio in the data set filed under Cricetulus griseus came out at 58. In addition, the OD with P388 [1] stood at 225 mg/kg. Moreover, the values for the IC50 in the data set with UV4 [2], in the data set with CHO-AA8 [11] and in the data set with P388 [13] were 600 nM, 26000 nM and 6750 nM, respectively. The compound also gave an ILS at 225 mg/kg with P388 [12] of 37%.
For `O=C(CCCCCNc1c2ccccc2nc2ccccc12)c1ccc(N(CCCl)CCCl)cc1`, the Ratio in the data set filed under Cricetulus griseus was 5.9. Further, the OD with P388 [1] came out at 65 mg/kg. The IC50 in the data set on UV4 [2] is 593 nM; with P388 [4] it was 330 nM; in the data set with CHO-AA8 [5], 3510 nM. Also, the “K H” value in [3] turned out to be 1100 s⁻¹. In addition, the “K NBP” value in data set [6] stood at 1800 s⁻¹.
Compound `ClCCN(CCCl)c1ccc(OCCCCCNc2c3ccccc3nc3ccccc23)cc1` showed an ILS at 20 mg/kg in the data set on P388 [14] of 28%. The Ratio in the data set listed under Cricetulus griseus is 46. In the data set on P388 [1], this compound came in with an OD of 20 mg/kg. The IC50 with UV4 [2] was 5 nM; with P388 [4], 40 nM; with CHO-AA8 [5], 210 nM. The “K H” value in [3] turned out to be 100000 s⁻¹. Besides, in data set [6], the “K NBP” value is 115000 s⁻¹.
As for `O=C(NCCCCNc1c2ccccc2nc2ccccc12)c1ccc(N(CCCl)CCCl)cc1`, the Ratio in the data set listed under Cricetulus griseus is 5.5. Also, the OD in the data set on P388 [1] is 20 mg/kg. Besides, the half-maximal inhibitory concentration (IC50) in the data set with UV4 [2] turned out to be 673 nM; in the data set on P388 [4], 510 nM; with CHO-AA8 [5], 3700 nM. For the same compound, in data set [3], the “K H” value came to 25700 s⁻¹. The “K NBP” value in data set [6] was found to be 171000 s⁻¹.
For the compound `CCN(CC)CCCC(C)Nc1c2ccc(Cl)cc2nc2ccc(OC)cc12` (stereo not drawn) [QUINACRINE], the Ratio in the data set filed under Cricetulus griseus amounted to 11.5. The IC50 was determined as 140 nM in the data set with UV4 [2] and 1700 nM in the data set on CHO-AA8 [5].
With `O=C(CCCCNc1c2ccccc2nc2ccccc12)Nc1ccc(N(CCCl)CCCl)cc1`, the Ratio in the data set listed under Cricetulus griseus came out at 11.3. For the same compound, the OD in the data set with P388 [1] came out at 45 mg/kg. Moreover, the IC50 is 80 nM with UV4 [2], 3200 nM in the data set with P388 [4] and 900 nM in the data set with CHO-AA8 [5]. Besides, the “K H” value in data set [3] came out at 2900 s⁻¹. For the same compound, in [6], the “K NBP” value was determined as 2500 s⁻¹. The ILS at 45 mg/kg in the data set on P388 [7] came to 58%.
